Literature values, collected in patent US8802627B2, “Fusion protein composed of matrix metalloproteinase-2 inhibitor peptide derived from amyloid-B precursor protein and tissue inhibitor of metalloproteinase-2” (Oriental Yeast Co., Ltd., priority 2008, dated 2014).

Assays:
MT1-MMP catalytic domain = MT1-MMP catalytic domain (Homo sapiens, UniProt P50281); conditions: prior art literature, J. Biol. Chem. 278, 14020-14028, 2003; read-out: reported IC50 upon MT1-MMP catalytic domain
MMP-9 = MMP-9 (Homo sapiens, UniProt P14780); conditions: prior art literature, J. Biol. Chem. 278, 14020-14028, 2003; read-out: reported IC50 upon MMP-9
MMP-9, sequence (P14780 94-707): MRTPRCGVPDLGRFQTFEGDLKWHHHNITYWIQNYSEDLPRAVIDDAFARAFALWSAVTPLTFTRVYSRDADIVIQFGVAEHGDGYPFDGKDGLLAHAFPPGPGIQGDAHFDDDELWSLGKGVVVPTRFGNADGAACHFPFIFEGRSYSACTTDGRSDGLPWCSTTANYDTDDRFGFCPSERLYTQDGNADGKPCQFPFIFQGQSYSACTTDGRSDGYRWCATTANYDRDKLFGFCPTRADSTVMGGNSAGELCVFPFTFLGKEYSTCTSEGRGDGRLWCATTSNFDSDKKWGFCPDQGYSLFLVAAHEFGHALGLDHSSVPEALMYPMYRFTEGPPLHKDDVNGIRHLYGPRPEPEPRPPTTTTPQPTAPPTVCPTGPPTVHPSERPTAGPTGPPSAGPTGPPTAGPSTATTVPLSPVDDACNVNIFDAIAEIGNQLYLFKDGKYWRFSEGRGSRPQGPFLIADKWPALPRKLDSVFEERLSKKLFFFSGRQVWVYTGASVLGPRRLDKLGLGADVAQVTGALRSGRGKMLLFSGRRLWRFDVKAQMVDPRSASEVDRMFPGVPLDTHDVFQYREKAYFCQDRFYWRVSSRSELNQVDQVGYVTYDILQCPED

MMP-7 = target: T1, MMP-7 (Homo sapiens, UniProt P09237); conditions: prior art literature, J. Biol. Chem. 278, 14020-14028, 2003; read-out: reported IC50 upon MMP-7
T1 sequence (P09237 95-267): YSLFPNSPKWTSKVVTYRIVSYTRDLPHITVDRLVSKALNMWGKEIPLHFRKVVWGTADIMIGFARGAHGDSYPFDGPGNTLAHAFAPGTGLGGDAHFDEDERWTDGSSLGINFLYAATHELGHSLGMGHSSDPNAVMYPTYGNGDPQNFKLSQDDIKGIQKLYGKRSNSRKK

MMP-2 = target: T2, MMP-2 (Homo sapiens, UniProt P08253); conditions: prior art literature, J. Biol. Chem. 278, 14020-14028, 2003; read-out: reported IC50 upon MMP-2
T2 construct: which now consists of 551 amino acid residues is designated active MMP-2
T2 sequence (P08253 110-660): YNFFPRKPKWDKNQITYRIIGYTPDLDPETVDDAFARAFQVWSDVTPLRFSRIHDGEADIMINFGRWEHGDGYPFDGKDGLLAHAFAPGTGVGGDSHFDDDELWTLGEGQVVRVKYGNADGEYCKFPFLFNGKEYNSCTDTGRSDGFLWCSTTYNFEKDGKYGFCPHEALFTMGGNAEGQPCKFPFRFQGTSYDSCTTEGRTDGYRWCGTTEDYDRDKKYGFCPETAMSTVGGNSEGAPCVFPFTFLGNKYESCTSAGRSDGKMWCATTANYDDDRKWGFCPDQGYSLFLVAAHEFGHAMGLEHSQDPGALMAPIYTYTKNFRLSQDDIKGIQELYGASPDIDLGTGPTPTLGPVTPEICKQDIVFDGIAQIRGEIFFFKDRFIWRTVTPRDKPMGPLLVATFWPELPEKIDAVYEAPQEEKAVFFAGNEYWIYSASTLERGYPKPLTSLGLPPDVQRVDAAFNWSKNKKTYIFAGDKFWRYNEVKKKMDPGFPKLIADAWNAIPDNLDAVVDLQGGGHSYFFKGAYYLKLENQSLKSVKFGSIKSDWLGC

ISYGNDALMP [APP-IP]
IC50 (MT1-MMP catalytic domain): 2 µM | IC50 (MMP-9): 20 µM | IC50 (MMP-7): 15 µM | IC50 (MMP-2): 0.03 µM
